Measured values: publication PMC6680226, “Peptoid Efficacy against Polymicrobial Biofilms Determined by Using Propidium Monoazide‐Modified Quantitative PCR” (Chembiochem, 2016)

Assays:
HaCaT = assay: alamarBlue cytotoxicity assay, HaCaT keratinocytes; conditions: alamarBlue viability; 2-100 μM from DMSO stock, 1 h with compound then 24 h incubation at 37 °C; fluorescence; triplicate on a minimum of two occasions
Procedure: (§1) Peptoid cytotoxicity studies: All 18 peptoids were tested for cytotoxicity against HepG2 epithelial (Sigma–Aldrich) and HaCaT keratinocyte (ThermoFisher) cell lines, Cytotoxicity analyses were performed in Costar 96‐well plates (Thermo Fisher Scientific) with alamarBlue (Invitrogen/Thermo Fisher Scientific) for cell viability detection as described by the manufacturer. HepG2 and HaCaT cells were grown at 37 °C under CO2 (5 %) in DMEM (high glucose) supplemented with heat‐inactivated foetal bovine sera (FBS, 10 %; Biosera, Uckfield, UK) and penicillin/streptomycin (1 %). Cells were counted in a Neubauer Improved Haemocytometer. HepG2 or HaCaT cells were seeded 24 h prior to treatment in 96‐well plates (2×10^4 cells per well in 100 μL). After 24 h, cells were incubated in triplicate with a dilution series of compound (2–100 μM from 5 mM stock solutions in DMSO) in the medium (50 μL) for 1 h. An aliquot (40 μL) was removed from each well, before the addition of medium (90 μL) followed by incubation for 24 h (37 °C, 5 % CO2). Then, alamarBlue (10 μL) was added to each well before incubation (2 h for Hep G2, 1 h for HaCaT) prior to assessing cell viability in a fluorescent plate reader (Biotek, Winooski, VT; λ ex=560 nm, λ em=600 nm). All data were measured in triplicate on a minimum of two occasions.
(§2) Toxicity was determined using an alamarBlue® cytotoxicity assay.

HepG2 = assay: alamarBlue cytotoxicity assay, HepG2 cells; conditions: alamarBlue viability; 2-100 μM from DMSO stock, 1 h with compound then 24 h incubation at 37 °C; fluorescence; triplicate on a minimum of two occasions
Procedure: as §1, §2

| Substance | ED50 HaCaT (HaCaT) [µM] | ED50 HepG2 (HepG2) [µM] |
| --- | --- | --- |
| (NahNpheNphe)3 [Peptoid 14] | > 100 | > 100 |
| (NaeNpheNphe)3 [Peptoid 8] | > 100 | > 100 |
| (NLysNpheNphe)2 [Peptoid 3] | > 100 | > 100 |
| (NahNspeNspe)2 [Peptoid 18] | > 100 | > 100 |
| (NahNspeNspe)4 [Peptoid 16] | 23 ± 1 | 41 ± 1 |
| (NaeNspeNspe)3 [Peptoid 11] | > 100 | > 100 |
| (NLysNpheNphe)3 [Peptoid 2] | > 100 | > 100 |
| (NaeNspeNspe)2 [Peptoid 12] | > 100 | > 100 |
| (NaeNpheNphe)2 [Peptoid 9] | > 100 | > 100 |
| (NLysNspeNspe)2 [Peptoid 6] | > 100 | > 100 |
| (NahNpheNphe)4 [Peptoid 13] | > 100 | > 100 |
| (NaeNspeNspe)4 [Peptoid 10] | 26 ± 2 | 41 ± 2 |
| (NahNpheNphe)2 [Peptoid 15] | > 100 | > 100 |
| (NLysNpheNphe)4 [Peptoid 1] | 36 ± 1 | > 100 |
